Results as given in patent US4889857A, “Quinolonecarboxylic acid compounds and pharmaceutical use thereof” (Yoshitomi Pharmaceutical Industries, Ltd., priority 1987, dated 1989).
Where two headings read alike, the source gives them in different places.

Experiments:
[1] = system: Staphylococcus aureus 308A-1; assay: Antibacterial activity in vitro (MIC); assay type: cell-based
[2] = system: Staphylococcus aureus FDA 209P*; assay: Antibacterial activity in vitro (MIC), horse blood medium; assay type: cell-based; conditions: FDA209P
Method: (§1) The antibacterial activities in vitro (minimum inhibitory concentration, MIC, μg/ml) of the test compounds were measured according to the standard method of the Japanese Chemotherapy Society (Chemotherapy, Vol. 23, p.1126, 1974).
(§2) (Inoculum size: 10^6 cells/ml, Organisms with asterisk (*) were
(§3) cultivated in a 10% horse bloodadded medium.)

[3] = system: Streptococcus sarivaris IFO 13956; assay: Antibacterial activity in vitro (MIC); assay type: cell-based
[4] = system: Citrobacter freundii IFO 12681; assay: Antibacterial activity in vitro (MIC); assay type: cell-based; conditions: IFO12681, inoculum 10^6 cells/ml
Method: as §1, §2, §3

[5] = system: Streptococcus lactis IFO 12546; assay: Antibacterial activity in vitro (MIC); assay type: cell-based; conditions: Lactococcus lactis, IFO12546; inoculum 10^6 cells/ml; 10% horse blood-added medium; read-out: MIC
Method: as §1, §2, §3

[6] = system: Streptococcus viridans America; assay: Antibacterial activity in vitro (MIC); assay type: cell-based
Method: as §1, §2, §3

[7] = system: Proteus vulgaris IFO 3988; assay: Antibacterial activity in vitro (MIC); assay type: cell-based
Method: as §1, §2, §3

Escherichia coli O-111 = assay: Antibacterial activity in vitro (MIC); assay type: cell-based; conditions: O111, inoculum 10^6 cells/ml
Method: as §1, §2, §3

[8] = system: Xanthomonas maltophilia IFO 12690; assay: Antibacterial activity in vitro (MIC); assay type: cell-based; conditions: Stenotrophomonas maltophilia, IFO12690; inoculum 10^6 cells/ml
Method: as §1, §2, §3

[9] = system: Bacillus subtilis PCT 219; assay: Antibacterial activity in vitro (MIC); assay type: cell-based
Method: as §1, §2, §3

Klebsiella pneumoniae DT = assay: Antibacterial activity in vitro (MIC); assay type: cell-based
Method: as §1, §2, §3

[10] = system: Pediococcus damnosus IFO 3895; assay: Antibacterial activity in vitro (MIC); assay type: cell-based
Method: as §1, §2, §3

[11] = system: Pseudomonas aeruginosa IFO 12582; assay: Antibacterial activity in vitro (MIC); assay type: cell-based
Method: as §1, §2, §3

[12] = system: Serratia marcescens IFO 12648; assay: Antibacterial activity in vitro (MIC); assay type: cell-based
Method: as §1, §2, §3

[13] = system: Proteus mirabilis IFO 3849; assay: Antibacterial activity in vitro (MIC); assay type: cell-based; conditions: IFO3849, inoculum 10^6 cells/ml, read-out: MIC
Method: as §1, §2, §3

[14] = system: Staphylococcus epidermidis ATCC 12228; assay: Antibacterial activity in vitro (MIC); assay type: cell-based
Method: as §1, §2, §3

Shigella flexneri EW-10 = assay: Antibacterial activity in vitro (MIC); assay type: cell-based; conditions: EW10, inoculum 10^6 cells/ml
Method: as §1, §2, §3

Shigella sonnei EW-33 = assay: Antibacterial activity in vitro (MIC); assay type: cell-based; conditions: EW33, inoculum 10^6 cells/ml
Method: as §1, §2, §3

[15] = system: Shigella typhosa Boxhill-58; assay: Antibacterial activity in vitro (MIC); assay type: cell-based
Method: as §1, §2, §3

Escherichia coli T-7 = assay: Antibacterial activity in vitro (MIC); assay type: cell-based; conditions: T7, inoculum 10^6 cells/ml
Method: as §1, §2, §3

[16] = system: Staphylococcus aureus 1840; assay: Antibacterial activity in vitro (MIC); assay type: cell-based
Method: as §1, §2, §3

[17] = system: Morganella morganii IFO 3168; assay: Antibacterial activity in vitro (MIC); assay type: cell-based; conditions: IFO3168, inoculum 10^6 cells/ml, read-out: MIC
Method: as §1, §2, §3

[18] = system: Pseudomonas aeruginosa U-31; assay: Antibacterial activity in vitro (MIC); assay type: cell-based; conditions: U31, inoculum 10^6 cells/ml, read-out: MIC
Method: as §1, §2, §3

[19] = system: Escherichia coli NIHJ JC-2; assay: Antibacterial activity in vitro (MIC); assay type: cell-based
Method: as §1, §2, §3

[20] = system: Corynebacterium diphtheriae Tronto; assay: Antibacterial activity in vitro (MIC); assay type: cell-based
Method: as §1, §2, §3

[21] = system: Acinetobacter calcoaceticus ATCC 13006; assay: Antibacterial activity in vitro (MIC); assay type: cell-based
Method: as §1, §2, §3

[22] = system: Streptococcus sp. IFO 3535; assay: Antibacterial activity in vitro (MIC); assay type: cell-based; conditions: IFO3535, inoculum 10^6 cells/ml, 10% horse blood-added medium, read-out: MIC
Method: as §1, §2, §3

[23] = system: Pseudomonas putida IFO 12996; assay: Antibacterial activity in vitro (MIC); assay type: cell-based; conditions: IFO12996, inoculum 10^6 cells/ml, read-out: MIC
Method: as §1, §2, §3

[24] = system: Staphylococcus aureus FDA 209P; assay: Antibacterial activity in vitro (MIC); assay type: cell-based; conditions: FDA209P
Method: as §1, §2, §3

S. pyogenes C-203 = assay: MIC of the infecting organism (Experiment 2); assay type: cell-based; conditions: Streptococcus pyogenes, C203; Table 2
Method: (§4) Experimental infection was caused by inoculating male mice intraperitoneally with each organism. Each of the test compounds was administered orally to the mice, one hour after the inoculation. […] The Minimum inhibitory concentrations (MIC) were also measured.

S. aureus 109(MRSA) = assay: MIC of the infecting organism (Experiment 2); assay type: cell-based; conditions: Staphylococcus aureus, Table 2
Method: as §4

[25] = system: Aerobacter aerogenes IFO 12979; assay: Antibacterial activity in vitro (MIC); assay type: cell-based; conditions: Klebsiella aerogenes, IFO12979
[26] = system: Enterococcus faecalis LS-101; assay: Antibacterial activity in vitro (MIC); assay type: cell-based
[27] = system: Micrococcus luteus IFO 12708; assay: microbe, parasite or virus in culture; conditions: IFO12708
[28] = system: Alcaligenes faecalis NCTC 415; assay: Antibacterial activity in vitro (MIC); assay type: cell-based; conditions: NCTC415, inoculum 10^6 cells/ml
Pseudomonas cepacia 739 = assay: Antibacterial activity in vitro (MIC); assay type: cell-based; conditions: Burkholderia cepacia, inoculum 10^6 cells/ml
[29] = system: Staphylococcus epidermidis ATCC 12983; assay: Antibacterial activity in vitro (MIC); assay type: cell-based
[30] = system: Aerococcus viridans IFO 12219; assay: microbe, parasite or virus in culture; conditions: IFO12219
[31] = system: Flavobacterium meningosepticum IFO 12535; assay: Antibacterial activity in vitro (MIC); assay type: cell-based; conditions: Elizabethkingia meningoseptica, IFO12535; inoculum 10^6 cells/ml
[32] = inoculum 10^6 cells/ml, 10% horse blood-added medium, read-out: MIC
[33] = inoculum 10^6 cells/ml, read-out: MIC

Measured: MIC

CNCC1CN(c2c(F)cc3c(=O)c(C(=O)O)cn(C4CC4)c3c2F)CCO1 (stereo not drawn) [Compound A, 1-cyclopropyl-6,8-difluoro-1,4,-dihydro-7-[2-(methylaminomethyl)morpholino]-4-oxoquinoline-3-carboxylic acid]
0.2 µg/mL: [3]; IFO13956 | [4] | [6] | Escherichia coli O-111 | Klebsiella pneumoniae DT | S. aureus 109(MRSA) | [25]
0.025 µg/mL: [2] | Shigella flexneri EW-10 | Shigella sonnei EW-33 | [20] | [24]
0.012 µg/mL: [9]; PCT219, inoculum 10^6 cells/ml, read-out: MIC
0.05 µg/mL: [1]; 308A1 | [14]; ATCC12228 | [15] | S. pyogenes C-203 | [29]; ATCC12983
0.1 µg/mL: [8] | Escherichia coli T-7 | [16] | [19]; NIHJJC2 | [26]; LS101 | [30]
1.56 µg/mL: [5] | [13] | [17] | [18] | [22] | [23] | [28] | Pseudomonas cepacia 739 | [31]
3.13 µg/mL: [11]; IFO12582
0.39 µg/mL: [10]; IFO3895 | [21]; ATCC13006 | [27]
0.78 µg/mL: [7]; IFO3988 | [12]; IFO12648

CC1COc2c(N3CCN(C)CC3)c(F)cc3c(=O)c(C(=O)O)cn1c23 (stereo not drawn) [OFLX, 9-fluoro-3-methyl-10-(4-methyl-1-piperazinyl)-7-oxo-2,3-dihydro-7H-pyrido[1,2,3-de][1,4]-benzoxazine-6-carboxylic acid]
0.025 µg/mL: Shigella sonnei EW-33 | [15]
3.13 µg/mL: [3]; IFO13956, inoculum 10^6 cells/ml, 10% horse blood-added medium, read-out: MIC | [22] | [27] | [30]
0.2 µg/mL: [2]; [32] | [10]; IFO3895, inoculum 10^6 cells/ml, 10% horse blood-added medium, read-out: MIC | [12]; IFO12648, inoculum 10^6 cells/ml, read-out: MIC | [14]; ATCC12228, inoculum 10^6 cells/ml, 10% horse blood-added medium, read-out: MIC | [20]; [32] | [21]; ATCC13006, inoculum 10^6 cells/ml, read-out: MIC | [24]; [33]
0.78 µg/mL: [18] | S. pyogenes C-203 | S. aureus 109(MRSA) | [26]; LS101, inoculum 10^6 cells/ml, 10% horse blood-added medium, read-out: MIC | [28] | Pseudomonas cepacia 739 | [31]
0.1 µg/mL: [7]; IFO3988, inoculum 10^6 cells/ml, read-out: MIC | Klebsiella pneumoniae DT; [33] | [17] | [19]; NIHJJC2, inoculum 10^6 cells/ml, read-out: MIC
0.05 µg/mL: [4] | Escherichia coli O-111 | [8] | [9]; PCT219 | Shigella flexneri EW-10 | Escherichia coli T-7
0.39 µg/mL: [1]; 308A1, inoculum 10^6 cells/ml, read-out: MIC | [13] | [29]; ATCC12983, inoculum 10^6 cells/ml, 10% horse blood-added medium, read-out: MIC
1.56 µg/mL: [6]; [32] | [11]; IFO12582, inoculum 10^6 cells/ml, read-out: MIC | [16]; [33] | [23] | [25]; [33]
6.25 µg/mL: [5]
